{
  "source": "patent US12053451B2",
  "about": "“Arginase inhibitors and their therapeutic applications” (OncoArendi Therapeutics S.A., priority 2016, dated 2024)",
  "key": {"[1]": {"target": "T1, recombinant human arginase 1 (Homo sapiens, UniProt P05089)", "T1 construct": "purchased Biolegend 552502", "T1 sequence (P05089 1-322)": "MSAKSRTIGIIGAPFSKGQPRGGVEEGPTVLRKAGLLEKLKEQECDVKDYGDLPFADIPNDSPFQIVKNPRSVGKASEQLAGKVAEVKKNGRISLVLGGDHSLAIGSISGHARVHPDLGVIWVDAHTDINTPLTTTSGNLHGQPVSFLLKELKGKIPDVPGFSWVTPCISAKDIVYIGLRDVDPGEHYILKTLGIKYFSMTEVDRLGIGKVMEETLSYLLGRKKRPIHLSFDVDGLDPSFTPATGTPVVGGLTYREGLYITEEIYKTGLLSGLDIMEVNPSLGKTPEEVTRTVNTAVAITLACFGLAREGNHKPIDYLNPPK", "experiment": "Human arginase activity assay (urea measurement), arginase 1", "type": "biochemical", "conditions": "recombinant human arginase 1, pH 7.4, 37° C., 60 min; * = value for the most potent diastereoisomer or the mixture of diastereoisomers; read-out: Activity Class (ARG I)", "method_in_brief": "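Arginase activity was measured as urea formed from L-arginine over 60 min at 37 °C. Reaction stopped with oPA/NED acidic reagent and absorbance read at 530 nm after 20 min colour development. Values were background-subtracted and normalised to no-compound activity, and IC50 was derived from percent-inhibition concentration-response regression.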"}, "[2]": {"target": "T2, intracellular arginase in macrophages isolated from murine bone marrow (BMDM) (Mus musculus, UniProt Q61176)", "T2 construct": "endogenous in cells; host or cells: primary bone marrow derived macrophages from Balb/c mice, M-CSF and IL-4 treated", "T2 sequence (Q61176 1-323)": "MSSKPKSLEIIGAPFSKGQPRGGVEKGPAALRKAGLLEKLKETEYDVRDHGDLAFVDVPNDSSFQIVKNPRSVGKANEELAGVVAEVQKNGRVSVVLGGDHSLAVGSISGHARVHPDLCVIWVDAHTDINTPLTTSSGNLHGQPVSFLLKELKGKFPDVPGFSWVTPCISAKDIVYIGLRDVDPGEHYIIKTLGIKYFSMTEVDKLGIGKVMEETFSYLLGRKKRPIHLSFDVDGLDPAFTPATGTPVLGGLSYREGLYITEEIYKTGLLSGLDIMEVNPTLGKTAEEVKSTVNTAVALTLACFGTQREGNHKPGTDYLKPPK", "experiment": "Cell-based assay: intracellular arginase in bone marrow derived macrophages (BMDM), urea level", "parameters": "species or system Balb/c mice", "conditions": "murine BMDM with M-CSF and IL-4, urea measured 24 hours after compound; * = most potent diastereoisomer or mixture of diastereoisomers; read-out: Activity Class (BMDM)", "method": "Efficacy of Selected Examples Towards Intracellular Arginase in Macrophages Isolated from Murine Bone Marrow—Bone Marrow Derived Macrophages (BMDM)\nMaterials & Methods: The assay was performed according to modified literature protocol modification (Pineda-Torra I et al., Methods Mol Biol. 2015; 1339:101-9. Mia S et al. Scand J Immunol. 2014 May; 79(5):305-14). The femurs and tibias were isolated from Balb/c mice. Bones were cleaned from all attached tissues by using sterile swab without affecting the bone structure. Bones were sterilized by immersion in 70% ethanol for 5 min and then rinsed in PBS. The sides of the bones were cut off and flush with cold sterile PBS by using 26-G needle S into a 50 mL sterile tube with a cell strainer (Falcon™, Cat. No. U00149), until bone cavity appeared white. Then the cells were centrifuged (5 min at 500×G, 4° C.), washed twice with PBS and counted. Cells were plated in Petri dish in density of 1×10^6/mL and cultured in DMEM (Gibco, Cat. No. 31331-029) with 10% FBS, 1% pen-strep and 50 ng/mL M-CSF (PeproTech, Cat. No. 315-02), (37° C., 5% CO2). After five days cells were subcultured into P96 plate (BD, Cat. No. 353072) in density of 64 000 cells/well in medium supplemented with 50 ng/mL M-CSF and 20 ng/mL IL-4 (Biomibo Cat. No. 214-1). One day later exemplary compounds (dissolved in PBS) were added in several different concentrations and 24 hours later the level of urea was measured in each well (Jung D et al., Clin Chem. 1975, 21(8):1136-40). The concentration of urea in the absence of any compound was considered as the maximum. The absorbance of cell culture media (background) was subtracted from all the values.\nFor selected examples the activity class for ARG2 was estimated based on % of inhibition for 1 μM and 100 μM concentration of tested compounds."}, "[3]": {"target": "T3, recombinant human arginase 2 (Homo sapiens, UniProt P78540)", "T3 construct": "made in house; host or cells: CHO", "T3 sequence (P78540 23-354)": "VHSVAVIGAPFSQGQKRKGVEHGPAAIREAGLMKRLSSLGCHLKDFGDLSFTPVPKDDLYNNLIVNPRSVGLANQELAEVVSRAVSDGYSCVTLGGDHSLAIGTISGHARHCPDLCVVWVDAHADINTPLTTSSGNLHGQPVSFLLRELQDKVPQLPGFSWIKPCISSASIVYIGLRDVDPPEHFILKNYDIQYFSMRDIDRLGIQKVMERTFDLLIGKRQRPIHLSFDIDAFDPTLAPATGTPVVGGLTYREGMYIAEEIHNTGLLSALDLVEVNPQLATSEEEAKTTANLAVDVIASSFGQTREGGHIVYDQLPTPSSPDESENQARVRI", "experiment": "Human arginase activity assay (urea measurement), arginase 2", "type": "biochemical", "conditions": "for selected examples class estimated from % of inhibition at 1 μM and 100 μM, * = most potent diastereoisomer or mixture of diastereoisomers, read-out: Activity Class (ARG II)", "method_in_brief": "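Recombinant CHO-expressed human arginase 2 converted 20 mM L-arginine with 150 μM MnCl2 in phosphate buffer pH 7.4 for 60 min at 37 °C. Urea was measured colorimetrically at 530 nm after background subtraction, and IC50 fitted. Some compounds were classed by % inhibition at 1 μM and 100 μM.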"}},
  "note": "Counter-ions that a name gives are not always drawn.",
  "data": [
    {"compound": "NC1CC(CCB(O)O)CC(N)(C(=O)O)C1", "note": "(stereo not drawn) [Example 56, 1,3-diamino-5-(2-boronoethyl)cyclohexanecarboxylic acid dihydrochloride]", "values": [
      {"measurement": "IC50", "setting": "[1]", "value": "1 to 10", "unit": "µM"},
      {"measurement": "IC50", "setting": "[2]", "value": "> 100", "unit": "µM"},
      {"measurement": "IC50", "setting": "[3]", "value": "0.1 to 1", "unit": "µM"}
    ]}
  ]
}
